Active and inactive are the calls of the source. No cut-off for these calls is given here.
Tests used:
D(2) dopamine receptor = D(2) dopamine receptor (Homo sapiens, UniProt P14416); test: Displacement of [3H]-raclopride from human D2L receptor expressed in HEK293 cells measured after 1 hr by Microbeta plate reader method; assay type: cell-based
[1] = target: 5-hydroxytryptamine receptor 2A (Homo sapiens, UniProt P28223); test: Displacement of [3H]-ketanserin from human 5-HT2A receptor expressed in CHO-K1 cells measured after 1.5 hrs by Microbeta plate reader method; assay type: cell-based
[2] = Cytotoxicity against CHO-K1 cells measured after 24 hrs by MTT assay; assay type: toxicity, cell-based, Cricetulus griseus; conditions: Chinese hamster
[3] = Permeability of compound at pH 7.4 by PAMPA assay
[4] = target: T1, 5-hydroxytryptamine receptor 3A (Cavia porcellus, UniProt O70212); test: Antagonist activity at 5-HT3 receptor in guinea-pig ileum assessed as inhibition of 5HT-induced contraction; assay type: tissue-based
T1 sequence (O70212 whole entry): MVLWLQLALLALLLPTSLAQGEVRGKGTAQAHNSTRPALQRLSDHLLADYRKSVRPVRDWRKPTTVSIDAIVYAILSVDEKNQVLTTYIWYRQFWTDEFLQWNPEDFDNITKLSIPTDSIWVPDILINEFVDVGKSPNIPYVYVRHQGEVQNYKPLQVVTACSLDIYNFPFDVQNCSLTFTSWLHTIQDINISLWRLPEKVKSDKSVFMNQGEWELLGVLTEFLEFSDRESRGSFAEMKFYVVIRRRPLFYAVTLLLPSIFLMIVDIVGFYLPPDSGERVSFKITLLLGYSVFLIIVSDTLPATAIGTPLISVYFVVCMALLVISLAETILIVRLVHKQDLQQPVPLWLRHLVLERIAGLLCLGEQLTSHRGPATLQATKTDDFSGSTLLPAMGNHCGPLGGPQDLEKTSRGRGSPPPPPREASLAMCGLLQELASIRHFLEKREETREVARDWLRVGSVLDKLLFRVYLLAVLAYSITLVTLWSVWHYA

[5] = target: T2, 5-hydroxytryptamine receptor 1A (Homo sapiens, UniProt P08908); test: Displacement of [3H]-8-OH-DPAT from human 5-HT1A receptor expressed in HEK293 cells measured after 1 hr by Microbeta plate reader method; assay type: cell-based
T2 sequence (P08908 whole entry): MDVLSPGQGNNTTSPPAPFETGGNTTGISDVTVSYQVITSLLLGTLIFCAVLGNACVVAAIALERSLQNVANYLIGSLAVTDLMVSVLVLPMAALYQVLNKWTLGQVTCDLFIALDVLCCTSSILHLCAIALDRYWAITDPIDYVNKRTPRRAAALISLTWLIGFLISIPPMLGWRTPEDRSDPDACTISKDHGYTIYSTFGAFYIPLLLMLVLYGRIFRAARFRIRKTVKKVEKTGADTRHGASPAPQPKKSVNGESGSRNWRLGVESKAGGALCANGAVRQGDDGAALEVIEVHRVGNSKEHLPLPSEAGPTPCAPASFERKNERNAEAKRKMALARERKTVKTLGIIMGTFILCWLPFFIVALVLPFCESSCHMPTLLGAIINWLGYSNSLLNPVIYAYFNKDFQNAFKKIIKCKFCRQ

[6] = target: 5-hydroxytryptamine receptor 7 (Homo sapiens, UniProt P34969); test: Displacement of [3H]-5-CT from human 5-HT7b receptor expressed in HEK293 cells measured after 1 hr by Microbeta plate reader method; assay type: cell-based
[7] = target: T3, 5-hydroxytryptamine receptor 3A (Homo sapiens) (UniProt P46098); test: Competitive binding affinity towards 5-HT3 receptor (unknown origin); conditions: filed as antagonist
T3 sequence (whole entry): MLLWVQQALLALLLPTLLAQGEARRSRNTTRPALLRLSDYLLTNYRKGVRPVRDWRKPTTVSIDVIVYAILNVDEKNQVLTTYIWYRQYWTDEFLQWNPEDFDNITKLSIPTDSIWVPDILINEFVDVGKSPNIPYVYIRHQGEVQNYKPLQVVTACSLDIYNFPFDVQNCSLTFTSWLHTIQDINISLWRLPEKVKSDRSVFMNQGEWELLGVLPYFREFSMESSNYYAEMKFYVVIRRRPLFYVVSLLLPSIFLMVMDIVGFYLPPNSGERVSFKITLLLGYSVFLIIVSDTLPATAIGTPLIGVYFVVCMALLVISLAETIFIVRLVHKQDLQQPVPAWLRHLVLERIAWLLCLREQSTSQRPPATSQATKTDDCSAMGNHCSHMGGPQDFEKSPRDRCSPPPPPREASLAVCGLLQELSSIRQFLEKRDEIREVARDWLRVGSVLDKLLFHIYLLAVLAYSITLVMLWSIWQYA

[8] = Cytotoxicity against HEK293 cells measured after 24 hrs by MTT assay; assay type: toxicity, cell-based; conditions: human
Rattus norvegicus [9] = test: Antipsychotic activity in male Wistar rat assessed as inhibition of amphetamine-stimulated locomotor activity at 1 mg/kg, ip; assay type: functional, organism-based
Rattus norvegicus [10] = test: Antipsychotic activity in male Wistar rat assessed as restoration of prepulse inhibition of acoustic startle response at 1 mg/kg, ip; assay type: functional, organism-based
[11] = Toxicity in male Wistar rat assessed as maximum tolerated dose administered intraperitoneally; conditions: in vivo, route ip
[12] = Toxicity in male Wistar rat assessed as adverse effects at 2 mg/kg, ip; assay type: organism-based; conditions: in vivo
[13] = Toxicity in male Wistar rat assessed as abnormalities in liver at 2 mg/kg, ip; assay type: organism-based; conditions: in vivo
[14] = Toxicity in male Wistar rat assessed as abnormalities in kidney at 2 mg/kg, ip; assay type: organism-based; conditions: in vivo
[15] = Toxicity in male Wistar rat assessed as effect on creatine kinase level in plasma at 2 mg/kg, ip; assay type: organism-based; conditions: in vivo
[16] = Toxicity in male Wistar rat assessed as effect on AST level at 2 mg/kg, ip; assay type: organism-based; conditions: in vivo
[17] = Toxicity in male Wistar rat assessed as effect on ALT level at 2 mg/kg, ip; assay type: organism-based; conditions: in vivo
[18] = Half-life in male Wistar rat brain at 2 mg/kg, ip; assay type: ADME, organism-based
[19] = Tmax in male Wistar rat brain at 2 mg/kg, ip; assay type: ADME, organism-based
[20] = Cmax in male Wistar rat brain at 2 mg/kg, ip; assay type: ADME, organism-based; design: dose 2 mg/kg, route ip
[21] = AUC in male Wistar rat brain at 2 mg/kg, ip; assay type: ADME, organism-based; design: dose 2 mg/kg, route ip; conditions: in vivo
[22] = MRT in male Wistar rat brain at 2 mg/kg, ip; assay type: ADME, organism-based
[23] = Half-life in male Wistar rat plasma at 2 mg/kg, ip; assay type: ADME, organism-based
[24] = Tmax in male Wistar rat plasma at 2 mg/kg, ip; assay type: ADME, organism-based
[25] = Cmax in male Wistar rat plasma at 2 mg/kg, ip; assay type: ADME, organism-based; design: dose 2 mg/kg, route ip
[26] = AUC in male Wistar rat plasma at 2 mg/kg, ip; assay type: ADME, organism-based; design: dose 2 mg/kg, route ip; conditions: in vivo
[27] = MRT in male Wistar rat plasma at 2 mg/kg, ip; assay type: ADME, organism-based

Sequence of D(2) dopamine receptor (P14416 whole entry): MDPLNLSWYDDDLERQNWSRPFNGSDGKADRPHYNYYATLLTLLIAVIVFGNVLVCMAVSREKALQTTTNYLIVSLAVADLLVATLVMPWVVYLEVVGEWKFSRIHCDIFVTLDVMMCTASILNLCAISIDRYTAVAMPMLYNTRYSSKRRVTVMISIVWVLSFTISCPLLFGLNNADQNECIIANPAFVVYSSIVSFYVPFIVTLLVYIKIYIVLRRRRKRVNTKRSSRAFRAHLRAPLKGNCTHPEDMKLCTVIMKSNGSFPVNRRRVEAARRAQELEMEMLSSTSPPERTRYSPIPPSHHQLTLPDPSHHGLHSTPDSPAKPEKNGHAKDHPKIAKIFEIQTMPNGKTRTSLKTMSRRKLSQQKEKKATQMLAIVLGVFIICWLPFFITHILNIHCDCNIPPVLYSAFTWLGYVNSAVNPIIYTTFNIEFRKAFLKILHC
Sequence of 5-hydroxytryptamine receptor 2A (P28223 whole entry): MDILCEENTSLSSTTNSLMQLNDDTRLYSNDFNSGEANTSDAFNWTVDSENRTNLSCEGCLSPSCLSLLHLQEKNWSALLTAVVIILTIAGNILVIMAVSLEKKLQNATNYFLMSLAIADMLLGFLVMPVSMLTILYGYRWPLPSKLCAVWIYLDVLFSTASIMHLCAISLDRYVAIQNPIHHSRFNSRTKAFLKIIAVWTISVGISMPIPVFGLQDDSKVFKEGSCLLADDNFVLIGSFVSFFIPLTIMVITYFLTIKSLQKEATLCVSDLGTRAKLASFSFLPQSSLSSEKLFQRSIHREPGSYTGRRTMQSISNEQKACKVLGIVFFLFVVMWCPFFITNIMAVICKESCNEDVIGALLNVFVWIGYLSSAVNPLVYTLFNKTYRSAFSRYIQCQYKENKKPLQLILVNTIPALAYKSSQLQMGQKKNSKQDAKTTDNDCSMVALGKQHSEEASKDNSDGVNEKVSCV
Sequence of 5-hydroxytryptamine receptor 7 (P34969 whole entry): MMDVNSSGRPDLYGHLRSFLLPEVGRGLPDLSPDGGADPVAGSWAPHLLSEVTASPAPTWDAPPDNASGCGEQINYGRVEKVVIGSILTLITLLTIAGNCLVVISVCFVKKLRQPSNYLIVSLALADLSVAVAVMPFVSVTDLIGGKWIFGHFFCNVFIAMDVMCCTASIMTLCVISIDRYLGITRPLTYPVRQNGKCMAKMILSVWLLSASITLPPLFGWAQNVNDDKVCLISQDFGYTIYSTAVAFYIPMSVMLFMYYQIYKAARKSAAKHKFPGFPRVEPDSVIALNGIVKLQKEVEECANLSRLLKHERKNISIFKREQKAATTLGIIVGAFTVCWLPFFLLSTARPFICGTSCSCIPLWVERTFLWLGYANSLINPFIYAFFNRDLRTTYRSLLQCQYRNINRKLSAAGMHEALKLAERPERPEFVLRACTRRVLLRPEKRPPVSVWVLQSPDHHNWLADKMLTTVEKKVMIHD

Structure (SMILES)	Ki (D(2) dopamine receptor) [µM]	Ki [1] [µM]	IC50 at 24 h [2] [µM]	Papp [3] [×10⁻⁶ cm/s]	IC50 [4] [µM]	further results
COc1ccccc1N1CCN(CCCN2CCN(C(=O)c3ccccc3)CC2)CC1	0.26	30	1300	11	–	–
COc1ccc(N2CCN(CCCN3CCN(C(=O)c4ccccc4)CC3)CC2)cc1	5.5	30	> 400	23	> 10	–
NS(=O)(=O)c1cc2c(cc1Cl)N=CNS2(=O)=O [CHLOROTHIAZIDE]	–	–	–	0.3	–	–
N#Cc1cccnc1N1CCN(CCCN2CCN(c3ccccc3)CC2)CC1	0.77	13	770	25	> 3	–
CN(C)CCCN1c2ccccc2Sc2ccc(Cl)cc21 [CHLORPROMAZINE]	–	–	–	9.6	–	–
COc1ccccc1N1CCN(CCN2CCN(c3ncccc3C#N)CC2)CC1	0.13	–	780	14	> 10	–
Cc1nccn1CC1CCc2c(c3ccccc3n2C)C1=O (configuration not stated) [ONDANSETRON]	> 10	–	–	–	–	Ki [5]: > 10 µM; Ki [6]: > 1 µM; pKb [7]: 7.36
O=C(c1ccccc1)N1CCN(CCCN2CCN(c3cccc(Cl)c3Cl)CC2)CC1	0.12	1.7	110	23	> 3	–
COc1ccccc1N1CCN(CCCN2CCN(C(=O)c3ccccn3)CC2)CC1	0.59	–	1900	8.7	–	–
N#Cc1cccnc1N1CCN(CCCCOc2ccc3c(c2)NC(=O)CC3)CC1	2.1	7.4	1000	12	–	–
COc1ccccc1N1CCN(CCN2CCN(C(=O)c3nn(C)c4ccccc34)CC2)CC1	0.63	8.3	780	13	3	–
CN1CCN(C2=Nc3cc(Cl)ccc3Nc3ccccc32)CC1 [CLOZAPINE]	–	–	–	–	110	–
COc1ccc(N2CCN(CCCN3CCN(c4ncccc4C#N)CC3)CC2)cc1	1.5	40	360	24	3	–
O=C(c1ccccc1)N1CCN(CCCN2CCN(c3ccccc3)CC2)CC1	2.1	6.5	1300	20	–	–
N#Cc1cccnc1N1CCN(CCCOc2ccc3c(c2)NC(=O)CC3)CC1	0.081	5.3	350	14	–	pKb [7]: 5
O=C1CCc2ccc(OCCCCN3CCN(C(=O)c4ccccn4)CC3)cc2N1	0.009	6.9	89	9.4	> 10	–
N#Cc1cccnc1N1CCN(CCN2CCN(c3cccc(Cl)c3Cl)CC2)CC1	0.21	1.3	220	7.9	1	–
COc1ccccc1N1CCN(CCCNC(=O)c2cnccn2)CC1	0.86	35.8	> 500	25	–	–
O=C(c1ccccn1)N1CCN(CCCN2CCN(c3cccc(Cl)c3Cl)CC2)CC1	0.082	2.3	290	17	–	pKb [7]: 5.3
CN1CCN(c2nc3ncccc3cc2C#N)CC1	–	–	–	–	–	Kb ([4]; read-out: pA2 (converted)): 0.0398 µM
Cn1nc(C(=O)N2CCN(CCN3CCN(c4cccc(Cl)c4Cl)CC3)CC2)c2ccccc21	0.13	1.8	45	6.8	1	–
O=C1CCc2ccc(OCCCCN3CCN(c4cccc(Cl)c4Cl)CC3)cc2N1 [ARIPIPRAZOLE]	–	–	–	–	630	IC50 at 24 h [8]: > 100 µM; Activity (Rattus norvegicus [9]): Active; Activity (Rattus norvegicus [10]): Active
N#Cc1cccnc1N1CCN(CCCN2CCN(c3cccc(Cl)c3Cl)CC2)CC1	–	0.47	–	5.9	0.3	Ki [5]: 0.019 µM; Ki [6]: 0.57 µM; MTD [11]: 0.2 mg/kg; Activity [12]: Non-Toxic; Activity [13]: Non-Toxic; Activity [14]: Non-Toxic; Activity [15]: Non-Toxic; Activity [16]: Non-Toxic; Activity [17]: Non-Toxic; half-life [18]: 4.39 h; Tmax [19]: 1 h; Cmax [20]: 266 nM; AUC [21]: 88483.21 nmol·min/L; MRT [22]: 7.65 h; half-life [23]: 1.67 h; Tmax [24]: 3 min; Cmax [25]: 97.9 nM; AUC [26]: 10886.71 nmol·min/L; MRT [27]: 3.79 h
